# Measured values as given in a melting point compilation (Tetko et al.).
row,melting point,Compound
1,18 °C,CCCCCCCCCCCCCCCCCC(C)C
2,-21 °C,O=Cc1ccccn1
3,80 °C,OCCN(CCO)CCc1ccc(CSc2ccccc2)cc1
4,215 to 218 °C,Cc1cc2c3c(c1)c(O)c(-c1ccccc1)c(=O)n3CCC2
5,222 to 224 °C,C/C=C/C1Nn2c(nnc2-c2cccc([N+](=O)[O-])c2)S1 (centres undefined)
6,195 to 196 °C,Cc1nc(N)nc(Cl)c1Cc1ccccc1
7,68 to 70.5 °C,O=CC(F)(F)C(F)(F)C(F)(F)C(F)(F)C(F)(F)C(F)(F)C(F)(F)C(F)(F)C=O
8,-59 °C,CC(C)c1ccccc1Br
9,166 to 172 °C,O=C(O)c1cc([N+](=O)[O-])ccc1N1CCOCC1
10,214 to 216 °C,CSc1nc(N)nc(-c2cc(Cl)cc(Cl)c2)n1
11,341 °C,Cn1c(S(=O)(=O)O)nc2ccccc21
12,139 °C,BrC1C2CC3CC(C2)CC1C3 (centres undefined)
13,192 to 200 °C,O=C(O)c1cc(-c2ccccc2)on1
14,170 °C,Nc1ccc(S(=O)(=O)c2ccc([N+](=O)[O-])cc2)cc1
15,-66.9 °C,CC1CCCC(C)C1C (centres undefined)
16,38 to 40 °C,CCOC(=O)C(=O)CC(=O)c1cccs1
17,115 to 117 °C,NC(CCN(Cc1ccco1)S(=O)(=O)c1ccc(Cl)cc1)=NO
18,157 °C,Clc1ccc(Cl)c(-c2nnn[nH]2)c1
19,300 °C,Cc1cc2nc3[nH]c(=O)[nH]c(=O)c3nc2cc1C
20,133 °C,CN1C(=O)c2ccccc2C1O (centres undefined)
21,117 °C,CCCCc1ccc(NC(=O)c2ccc(CC)cc2)cc1
22,177 to 178 °C,O=Cc1ccc2oc(C(=O)c3ccc(Br)cc3)cc2c1
23,51 to 52 °C,CN(C)C1(C#N)CCOCC1
24,95 °C,CNC(=O)COC1CCN(C(=O)OC(C)(C)C)CC1

row,melting point,Compound
1,246 °C,COC(=O)C(Cc1ccccc1)NC(=O)C(N)CC(=O)O (centres undefined)
2,92 °C,CC(C)=C1C2C=CC1c1ccccc12
3,260 to 262 °C,CN(C)c1ccc(C=Nc2n[nH]c(N=Cc3ccc(N(C)C)cc3)c2Cc2ccc(Cl)cc2)cc1
4,149 °C,Cc1nc(/C(C#N)=C/c2ccc(N(C)C)cc2)sc1/N=N/c1ccc(F)cc1
5,51 °C,N#Cc1ccccc1-n1cccc1
6,140 to 142 °C,COc1cccc2onc(N)c12
7,310 to 320 °C,NC(=O)c1sc2nnccc2c1N
8,81 to 82 °C,Cc1onc(-c2ccccc2)c1CO
9,195 to 198 °C,Cc1nn(C)c(Cl)c1C(=O)O
10,132 to 134 °C,COC(=O)c1ccc(C(=O)OC)c(N)c1
11,83 to 85 °C,Cn1nc(-c2ccco2)cc1CO
12,231 °C,O=C(O)c1ccnc(Cl)c1
13,174 °C,O=C(Cc1ccccc1)C(Cc1ccccc1)=NNc1ccc([N+](=O)[O-])cc1
14,50 °C,CCC#CC(=O)O
15,12 °C,O=C(O)CC1CCCC1
16,132 to 133 °C,CN1C(=O)Cc2cc(Br)ccc21
17,152 °C,O=Cc1ccc2nccn2c1
18,118 °C,O=CC=Cn1ccnc1
19,161 to 166 °C,FC(F)(F)c1ccnc(S)n1
20,99.5 °C,CCOC(=O)c1cnn(-c2ccccc2)c1N
21,156 °C,O=C1CCC(c2ccccc2)(C2CCN(Cc3ccccc3)CC2)C(=O)N1 (centres undefined)
22,140 to 141 °C,CC12CCC(C(=O)/C(=C\c3ccccc3[N+](=O)[O-])C1=O)C2(C)C (centres undefined)
23,167 to 169 °C,Cn1ccc(-c2cccc(C(=O)O)c2)n1
24,-50 °C,CCC(O)CO (centres undefined)

row,melting point,Compound
1,148 to 149 °C,O=C(O)C1OC1C(=O)O (centres undefined)
2,187 °C,Clc1ccc(-c2csc(N3N=C(c4cnccn4)CC3c3ccc4c(c3)OCO4)n2)cc1 (centres undefined)
3,129 °C,O=S(=O)(Cl)c1cccc2cccnc12
4,13.7 °C,CN1CCC(CCCC2CCN(C)CC2)CC1
5,194 to 198 °C,CCOC(=O)c1c(=S)ncn2c1[nH]c1ccccc12
6,135 to 136 °C,NC(=S)c1ncc(C(F)(F)F)cc1Cl
7,109 °C,CCOC(=O)C(C#N)c1cc(Cl)c([N+](=O)[O-])cc1[N+](=O)[O-] (centres undefined)
8,360 °C,O=C1C(=C2C=Cc3ccccc3N2)C(=O)c2c1cccc2[N+](=O)[O-]
9,122 to 126 °C,O=C(NC(CO)C(=O)O)OCc1ccccc1 (racemic)
10,-26 °C,CCCCCCCCCCC(C)C
11,56 °C,O=C1C=CC2C3C=CC(C3)C12 (centres undefined)
12,186 °C,O=CC=P(c1ccccc1)(c1ccccc1)c1ccccc1
13,205 °C,CCOC(=O)c1c(SC)nn(C(=O)NNc2ccccc2)c1N
14,87 °C,COc1ccc(CC(=O)O)cc1
15,99 to 102 °C,Cc1nc(-c2ccccc2)sc1CO
16,145 to 147 °C,CCCSc1nnc(S)s1
17,65 to 67 °C,NNc1ccc(F)cc1F
18,104 °C,COc1cc([N+](=O)[O-])ccc1Br
19,272 to 275 °C,O=C1c2ccccc2C(=O)N1c1nc2ccccc2[nH]1
20,221 °C,N#CC1=C(N)Oc2c(c(C(F)(F)F)nn2-c2ccccc2)C1c1ccc(Cl)cc1 (centres undefined)
21,249 °C,Cn1c(=O)c(C2=NNC(=O)C2=CCc2ccccc2)c(O)c2ccccc21
22,165 °C,O=C(O)c1cccc(N=C=S)c1
23,128 °C,Nc1cc(Cl)ccc1[N+](=O)[O-]
24,56.5 °C,CCCOc1ccc(O)cc1

row,melting point,Compound
1,212 to 215 °C,CCOC(=O)c1cn(-c2ccc(F)cc2F)c2nc(Cl)c(F)cc2c1=O
2,-18 °C,NCCCNC1CCCCC1
3,49 to 49.5 °C,CCCCc1ccc(/N=N/c2ccc(O)cc2)cc1
4,121 to 126 °C,COc1ccc(CNc2ccccn2)cc1
5,-55 °C,CCc1cccc(Cl)c1
6,201 to 203 °C,COn1c(C)c(C(C)=O)c2c3nonc3ccc21
7,78.6 to 80.4 °C,CC1(C)N=C(c2ccccc2)C(C)(C)N1O
8,91 °C,Fc1ccc2nc(Cl)sc2c1
9,133 °C,Cn1c(/C(C#N)=C/c2ccc(F)cc2)nc2ccccc21
10,65 °C,COC(=O)c1ccccc1SC
11,151 to 152 °C,O=P(c1ccccc1)(c1ccccc1)C1C=C(c2ccccc2)C=C(c2ccccc2)O1 (centres undefined)
12,116 to 118 °C,O=C(Cl)c1cnn2ccccc12
13,151 °C,O=C(O)c1c(F)c(F)cc(F)c1F
14,200 to 202 °C,CCCC(=O)c1cc2cc(Br)cc(Br)c2oc1=O
15,52 °C,Cc1cc2ccccc2s1
16,107 °C,Cc1c(I)ccnc1Cl
17,100 °C,O=C(Nc1cccc(Br)c1)c1cncc(Cl)n1
18,82 to 84 °C,CC(=O)CCc1ccc(O)cc1
19,179 to 180 °C,N#Cc1c(NC(=O)CCl)sc2c1CCCC2
20,251 °C,Brc1cc2ccc1CCc1ccc(c(Br)c1)CC2
21,181 to 183 °C,CCOC(=O)c1cc2c(N)c(C(=O)OCC)sc2nc1C(F)(F)F
22,188 to 189 °C,CCCCc1c(C)nc(NC(=O)NS(=O)(=O)c2cccs2)nc1Cl
23,128 to 130 °C,O=C1CCCN1c1ccc([N+](=O)[O-])cc1
24,70 to 77 °C,NC(CCO)c1ccccc1 (centres undefined)

row,melting point,Compound
1,241 °C,O=C1COc2cc(O)ccc21
2,34 °C,CC(C)C(=NO)C(C)C
3,118 °C,C/C(OCCc1ccccc1)=C(/C#N)c1ccccc1
4,-24 °C,CC(C)(C)Oc1ccccc1
5,-18.1 °C,CC(=O)c1cc(C)ccc1C
6,254 °C,Ic1cc(I)c(I)cc1I
7,145 °C,O=C(O)CCCNC(=O)CCCCC(=O)NCCCC(=O)O
8,237 °C,Cn1ccc(=O)[nH]c1=O
9,-3.2 °C,CNC=O
10,-57 °C,BrCCC1CCCCC1
11,140 °C,OCC12CC3CC(CC(C3)C1)C2
12,63 to 65 °C,O=C(CN1CCNCC1)N1CCOCC1
13,53 to 55 °C,COC(=O)c1cnc(SC)n1C
14,190 °C,CC(=O)Oc1ccc(C2(c3ccc(OC(C)=O)cc3)Oc3ccccc3NC2=O)cc1
15,190 °C,O=C(O)c1ccc(Br)o1
16,193 °C,O=C1c2cccc(O)c2C(=O)c2c(O)cccc21
17,71 to 73 °C,N#Cc1ccc(F)cc1[N+](=O)[O-]
18,300 °C,Cc1nc(N)nc(O)n1
19,163 to 167 °C,NC(=O)[C@@H]1CC=CC[C@H]1N (relative stereo)
20,412 to 415 °C,Cn1c(=O)c2[nH]c(=O)[nH]c2n(C)c1=O
21,190 °C,CSc1[nH]nc(N)c1C#N
22,27 °C,Nc1ccc(N2CCCCC2)cc1

row,Compound,melting point
1,C#CC1(O)CCC2(C)C(CCC3C2CCC2(C)C3CCC2(C)O)C1 (centres undefined),190 °C
2,CNC(=O)ON=C(C)C(C)S(C)(=O)=O (centres undefined),87 °C
3,CCCCc1ccc(C(=O)O)nc1,97 °C
4,CC(=O)c1c(O)c(C)c(O)c(Cc2c(O)c3c(c(C(=O)C=Cc4ccccc4)c2O)OC(C)(C)C=C3)c1O,212 °C
5,COC(=O)N(C(=O)N1COC2(C(=O)OC)Cc3cc(Cl)ccc3C2=N1)c1ccc(OC(F)(F)F)cc1 (centres undefined),88.1 °C
6,CN(C)S(=O)(=O)N(SC(F)(Cl)Cl)c1ccccc1,106 °C
7,NN=C(N)C(S)=NN,150 °C
8,Nc1ccccc1N1CCNCC1,115 °C
9,Nc1nc(N)nc(NC2CC2)n1,225 °C
10,CCC1(OC(C)=O)CCC2(C)C(CCC3C4CCC(=O)C4(C)CCC32)C1 (centres undefined),150 to 152 °C
11,CCCCc1c(C)nc(NCC)nc1O,160 °C
12,CC12CCC3C(C(=O)CC4CC(=O)CCC43C)C1CCC2=O (centres undefined),229 to 234 °C
13,CN(C)CCc1ccc(O)cc1,118 °C
14,CC(=O)Nc1ccc(Cl)cc1C,136 to 138 °C
15,COP(=S)(OC)SCc1nc(N)nc(N)n1,165 °C
16,O=[N+]([O-])/C=C/c1cccc(/C=C/[N+](=O)[O-])c1,203 to 204 °C
